biological target: T1, Vascular endothelial growth factor receptor 2 (Homo sapiens, UniProt P35968); assay: Inhibition of KDR assessed as phosphorylation level of substrate at 10 uM by ELISA
T1 sequence (P35968 whole entry): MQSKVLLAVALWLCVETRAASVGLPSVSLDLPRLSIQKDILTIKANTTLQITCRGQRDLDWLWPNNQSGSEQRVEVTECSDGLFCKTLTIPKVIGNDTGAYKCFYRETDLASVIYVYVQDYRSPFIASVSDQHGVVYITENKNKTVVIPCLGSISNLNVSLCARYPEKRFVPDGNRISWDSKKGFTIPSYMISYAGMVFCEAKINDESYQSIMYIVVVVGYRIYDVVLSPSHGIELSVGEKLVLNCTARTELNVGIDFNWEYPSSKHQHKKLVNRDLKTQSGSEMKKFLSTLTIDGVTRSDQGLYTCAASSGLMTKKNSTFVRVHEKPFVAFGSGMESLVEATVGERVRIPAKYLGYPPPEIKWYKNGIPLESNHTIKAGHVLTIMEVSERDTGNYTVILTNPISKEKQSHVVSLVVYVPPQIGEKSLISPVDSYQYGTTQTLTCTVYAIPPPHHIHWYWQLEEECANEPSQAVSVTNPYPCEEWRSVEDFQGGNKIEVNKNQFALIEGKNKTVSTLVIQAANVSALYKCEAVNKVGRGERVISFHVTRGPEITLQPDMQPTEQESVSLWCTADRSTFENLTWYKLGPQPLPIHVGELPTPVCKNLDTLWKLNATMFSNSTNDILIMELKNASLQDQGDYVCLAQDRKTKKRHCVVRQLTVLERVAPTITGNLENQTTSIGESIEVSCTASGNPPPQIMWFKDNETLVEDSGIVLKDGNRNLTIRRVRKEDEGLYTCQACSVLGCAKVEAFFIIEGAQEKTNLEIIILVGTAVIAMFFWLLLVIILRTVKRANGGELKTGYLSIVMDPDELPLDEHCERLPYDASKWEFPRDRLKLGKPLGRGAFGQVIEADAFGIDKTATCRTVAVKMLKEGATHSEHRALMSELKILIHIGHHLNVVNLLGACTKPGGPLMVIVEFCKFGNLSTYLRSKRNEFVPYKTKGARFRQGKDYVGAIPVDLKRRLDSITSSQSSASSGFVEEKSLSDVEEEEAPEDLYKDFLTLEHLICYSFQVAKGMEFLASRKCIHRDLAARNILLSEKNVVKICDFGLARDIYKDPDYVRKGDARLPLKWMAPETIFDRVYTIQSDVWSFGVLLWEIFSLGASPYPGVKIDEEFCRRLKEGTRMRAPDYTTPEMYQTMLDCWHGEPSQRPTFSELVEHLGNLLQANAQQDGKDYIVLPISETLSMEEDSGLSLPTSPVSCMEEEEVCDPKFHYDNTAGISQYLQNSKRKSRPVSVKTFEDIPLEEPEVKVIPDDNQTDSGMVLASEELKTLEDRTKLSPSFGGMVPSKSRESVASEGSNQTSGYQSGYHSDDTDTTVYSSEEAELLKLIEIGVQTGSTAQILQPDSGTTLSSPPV

Compared with `O=C(Nc1ccc(Cl)cc1)c1c[nH]c2cccc(NCc3ccncc3)c12`, `O=C(Nc1cccc(Cl)c1)c1c[nH]c2cccc(NCc3ccncc3)c12` is lower in inhibition: 23% for the first, 18% for the second.

Compared with `O=C(Nc1cccc(C(F)(F)F)c1)c1c[nH]c2cccc(NCc3ccncc3)c12`, `Cc1cccc(NC(=O)c2c[nH]c3cccc(NCc4ccncc4)c23)c1` is lower in inhibition: 25% for the first, 18% for the second.

First: CC(C)(C)c1ccc(NC(=O)c2c[nH]c3cccc(SCc4ccncc4)c23)cc1
Second: O=C(Nc1ccc(Cl)cc1)c1c[nH]c2cccc(SCc3ccncc3)c12
The inhibition of the first is higher: 51% for the first, 34% for the second.

Compared with `O=C(Nc1ccc(Cl)cc1)c1c[nH]c2cccc(OCc3ccncc3)c12`, `CC(C)(C)c1ccc(NC(=O)c2c[nH]c3cccc(OCc4ccncc4)c23)cc1` is lower in inhibition: 9% for the first, 6% for the second.

Going from `O=C(Nc1cc2ccccc2cn1)c1c[nH]c2cccc(SCc3ccncc3)c12` to `O=C(Nc1cc2ccccc2cn1)c1c[nH]c2cccc(NCc3ccncc3)c12`, the inhibition falls from 74% to 55%.

Compared with `O=C(Nc1ccc2c(c1)CCC2)c1c[nH]c2cccc(OCc3ccncc3)c12`, `O=C(Nc1ccc2c(c1)CCC2)c1c[nH]c2cccc(NCc3ccncc3)c12` is higher in inhibition: 19% for the first, 27% for the second.

Going from `Cc1cc(C)cc(NC(=O)c2c[nH]c3cccc(NCc4ccncc4)c23)c1` to `Cc1cc(C)cc(NC(=O)c2c[nH]c3cccc(SCc4ccncc4)c23)c1`, the inhibition rises from 19% to 35%.

First: O=C(Nc1cccc(C(F)(F)F)c1)c1c[nH]c2cccc(SCc3ccncc3)c12
Second: Cc1cccc(NC(=O)c2c[nH]c3cccc(SCc4ccncc4)c23)c1
The inhibition of the first is higher: 92% for the first, 52% for the second.

First: O=C(Nc1cccc(C(F)(F)F)c1)c1c[nH]c2cccc(OCc3ccncc3)c12
Second: O=C(Nc1cccc(Cl)c1)c1c[nH]c2cccc(SCc3ccncc3)c12
The inhibition of the first is lower: 4% for the first, 35% for the second.

Compared with `O=C(Nc1ccc(OC(F)(F)F)cc1)c1c[nH]c2cccc(NCc3ccncc3)c12`, `O=C(Nc1ccc(OC(F)(F)F)cc1)c1c[nH]c2cccc(SCc3ccncc3)c12` is higher in inhibition: 14% for the first, 35% for the second.

First: O=C(Nc1ccc2c(c1)CCC2)c1c[nH]c2cccc(SCc3ccncc3)c12
Second: CC(C)(C)c1ccc(NC(=O)c2c[nH]c3cccc(NCc4ccncc4)c23)cc1
The inhibition of the first is higher: 59% for the first, 25% for the second.

biological target: T1, Vascular endothelial growth factor receptor 2; assay: Inhibition of KDR assessed as phosphorylation level of substrate by ELISA

`O=C(Nc1cccc(C(F)(F)F)c1)c1c[nH]c2cccc(SCc3ccncc3)c12` was tested, and the IC50 was 309 nM.

From ChEMBL document CHEMBL1681739, “KDR inhibitor with the intramolecular non-bonded interaction: conformation-activity relationships of novel indole-3-carboxamide derivatives” (Bioorg Med Chem Lett, 2011)
